According to ChEMBL document CHEMBL4396905, “Design, synthesis and in vitro evaluation of 6-amide-2-aryl benzoxazole/benzimidazole derivatives against tumor cells by inhibiting VEGFR-2 kinase” (Eur J Med Chem, 2019):
Each block holds one compound with its values, some of them ahead of it. The source made the active and inactive calls. The rule behind the calls is not given here.

Tests used:
[1] = target: T1, Vascular endothelial growth factor receptor 2 (Homo sapiens, UniProt P35968); conditions: at 1 µM
Description: Inhibition of VEGFR2 (unknown origin) using Poly (Glu, Tyr) 4:1 as substrate at 1 uM preincubated with substrate followed by enzyme challenge for 1 hr by ELISA relative to control

MDA-MB-231 = assay: Antiproliferative activity against human MDA-MB-231 cells expressing EGFR assessed as reduction in cell growth incubated for 48 hrs by MTT assay; type: functional, cell-based; conditions: MDA-MB-231, 48 h
[2] = target: T1, Vascular endothelial growth factor receptor 2; assay: Inhibition of VEGFR2 (unknown origin) using Poly (Glu, Tyr) 4:1 as substrate preincubated with substrate followed by enzyme challenge for 1 hr by ELISA
A549 = assay: Antiproliferative activity against human A549 cells expressing EGFR assessed as reduction in cell growth incubated for 48 hrs by MTT assay; type: functional, cell-based; conditions: A549, 48 h
HepG2 [3] = assay: Antiproliferative activity against human HepG2 cells expressing VEGFR2 assessed as reduction in cell growth incubated for 48 hrs by MTT assay; type: functional, cell-based; conditions: HepG2, 48 h
[4] = target: Epidermal growth factor receptor (Homo sapiens) (UniProt P00533); assay: Inhibition of EGFR (unknown origin) using Poly (Glu, Tyr) 4:1 as substrate at 1 uM preincubated with substrate followed by enzyme challenge for 1 hr by ELISA relative to control
HUVEC [5] = assay: Antiproliferative activity against human HUVEC cells expressing VEGFR2 assessed as reduction in cell growth incubated for 48 hrs by MTT assay; type: functional, cell-based
HepG2 [6] = assay: Induction of apoptosis in human HepG2 cells assessed as necrotic cells at 1 nM incubated for 24 hrs by dUTP-FITC/PI staining based flow cytometry (reference value: 10.2%); type: functional
[7] = target: Platelet-derived growth factor receptor beta (Homo sapiens) (UniProt P09619); assay: Inhibition of PDGFRbeta (unknown origin) at 1 uM
HepG2 [8] = assay: Cell cycle arrest in human HepG2 cells assessed as accumulation at G2/M phase at 1 nM incuabted for 24 hrs by PI staining based flow cytometry (reference value: 42.3%); type: functional
HepG2 [9] = assay: Cell cycle arrest in human HepG2 cells assessed as accumulation at G0/G1 phase at 1 nM incuabted for 24 hrs by PI staining based flow cytometry (reference value: 47.9%); type: functional
[10] = target: Vascular endothelial growth factor receptor 1 (Homo sapiens) (UniProt P17948); assay: Inhibition of FLT1 (unknown origin) at 1 uM
HepG2 [11] = assay: Induction of apoptosis in human HepG2 cells assessed as necrotic cells at 10 nM incubated for 24 hrs by dUTP-FITC/PI staining based flow cytometry (reference value: 10.2%); type: functional
HepG2 [12] = assay: Cell cycle arrest in human HepG2 cells assessed as accumulation at S phase at 10 nM incuabted for 24 hrs by PI staining based flow cytometry (reference value: 9.8%); type: functional
[13] = target: Hepatocyte growth factor receptor (Homo sapiens) (UniProt P08581); assay: Inhibition of MET (unknown origin) at 1 uM
Chorioallantoic membrane [14] = assay: Antiangiogenic activity in chicken chorioallantoic membrane assessed as reduction in number of blood vessels measured after 48 hrs by CAM assay; type: functional, cell membranes; conditions: Gallus gallus
HUVEC [15] = assay: Cell cycle arrest in human HUVEC cells assessed as accumulation at G2/M phase at 1 nM incuabted for 24 hrs by PI staining based flow cytometry (reference value: 46.4%); type: functional
HUVEC [16] = assay: Cell cycle arrest in human HUVEC cells assessed as accumulation at G0/G1 phase at 1 nM incuabted for 24 hrs by PI staining based flow cytometry (reference value: 43.2%); type: functional
[17] = target: Vascular endothelial growth factor receptor 3 (Homo sapiens) (UniProt P35916); assay: Inhibition of FLT4 (unknown origin) 1 uM
HUVEC [18] = assay: Induction of apoptosis in human HUVEC cells assessed as apoptotic cells at 1 nM incubated for 24 hrs by dUTP-FITC/PI staining based flow cytometry (reference value: 4.9%); type: functional
Chorioallantoic membrane [19] = assay: Antiangiogenic activity in chicken chorioallantoic membrane assessed as reduction in number of blood vessels at 0.1 nM per egg measured after 48 hrs by CAM assay relative to control; type: functional, cell membranes; conditions: Gallus gallus
HUVEC [20] = assay: Induction of apoptosis in human HUVEC cells assessed as apoptotic cells at 10 nM incubated for 24 hrs by dUTP-FITC/PI staining based flow cytometry (reference value: 4.9%); type: functional
HUVEC [21] = assay: Cell cycle arrest in human HUVEC cells assessed as accumulation at S phase at 10 nM incuabted for 24 hrs by PI staining based flow cytometry (reference value: 10.4%); type: functional
[22] = Cytotoxicity against human LO2 cells assessed as reduction in cell viability at 10 uM relative to control; type: cell-based, L02; conditions: read-out: INH
HUVEC [23] = assay: Induction of apoptosis in human HUVEC cells assessed as necrotic cells at 1 nM incubated for 24 hrs by dUTP-FITC/PI staining based flow cytometry (reference value: 6.9%); type: functional
[24] = target: Platelet-derived growth factor receptor alpha (Homo sapiens) (UniProt P16234); assay: Inhibition of PDGFRalpha (unknown origin) at 1 uM
HUVEC [25] = assay: Induction of apoptosis in human HUVEC cells assessed as necrotic cells at 10 nM incubated for 24 hrs by dUTP-FITC/PI staining based flow cytometry (reference value: 6.9%); type: functional
HepG2 [26] = assay: Induction of apoptosis in human HepG2 cells assessed as apoptotic cells at 10 nM incubated for 24 hrs by dUTP-FITC/PI staining based flow cytometry (reference value: 3.3%); type: functional
HepG2 [27] = assay: Cell cycle arrest in human HepG2 cells assessed as accumulation at G0/G1 phase incuabted for 24 hrs by PI staining based flow cytometry; type: functional
HepG2 [28] = assay: Cell cycle arrest in human HepG2 cells assessed as accumulation at G2/M phase at 10 nM incuabted for 24 hrs by PI staining based flow cytometry (reference value: 42.3%); type: functional
HepG2 [29] = assay: Induction of apoptosis in human HepG2 cells assessed as apoptotic cells at 1 nM incubated for 24 hrs by dUTP-FITC/PI staining based flow cytometry (reference value: 3.3%); type: functional
HepG2 [30] = assay: Cell cycle arrest in human HepG2 cells assessed as accumulation at G0/G1 phase at 10 nM incuabted for 24 hrs by PI staining based flow cytometry (reference value: 47.9%); type: functional
Chorioallantoic membrane [31] = assay: Antiangiogenic activity in chicken chorioallantoic membrane assessed as reduction in number of blood vessels at 10 nM per egg measured after 48 hrs by CAM assay relative to control; type: functional, cell membranes; conditions: Gallus gallus
HUVEC [32] = assay: Cell cycle arrest in human HUVEC cells assessed as accumulation at G0/G1 phase at 10 nM incuabted for 24 hrs by PI staining based flow cytometry (reference value: 43.2%); type: functional
HUVEC [33] = assay: Cell cycle arrest in human HUVEC cells assessed as accumulation at G2/M phase at 10 nM incuabted for 24 hrs by PI staining based flow cytometry (reference value: 46.4%); type: functional
Chorioallantoic membrane [34] = assay: Antiangiogenic activity in chicken chorioallantoic membrane assessed as reduction in number of blood vessels at 1 nM per egg measured after 48 hrs by CAM assay relative to control; type: functional, cell membranes; conditions: Gallus gallus
[35] = target: T1, Vascular endothelial growth factor receptor 2; assay: Inhibition of VEGFR2 in human HUVEC cells assessed as reduction in phosphorylation of VEGFR2 at 2 to 4 uM incubated for 24 hrs by Western blot analysis; type: cell-based
HUVEC [36] = assay: Cell cycle arrest in human HUVEC cells assessed as accumulation at G0/G1 phase incuabted for 24 hrs by PI staining based flow cytometry; type: functional
HUVEC [37] = assay: Cell cycle arrest in human HUVEC cells assessed as accumulation at S phase at 1 nM incuabted for 24 hrs by PI staining based flow cytometry (reference value: 10.4%); type: functional
HepG2 [38] = assay: Cell cycle arrest in human HepG2 cells assessed as accumulation at S phase at 1 nM incuabted for 24 hrs by PI staining based flow cytometry (reference value: 9.8%); type: functional

Chain of Epidermal growth factor receptor (Homo sapiens) (P00533 whole entry): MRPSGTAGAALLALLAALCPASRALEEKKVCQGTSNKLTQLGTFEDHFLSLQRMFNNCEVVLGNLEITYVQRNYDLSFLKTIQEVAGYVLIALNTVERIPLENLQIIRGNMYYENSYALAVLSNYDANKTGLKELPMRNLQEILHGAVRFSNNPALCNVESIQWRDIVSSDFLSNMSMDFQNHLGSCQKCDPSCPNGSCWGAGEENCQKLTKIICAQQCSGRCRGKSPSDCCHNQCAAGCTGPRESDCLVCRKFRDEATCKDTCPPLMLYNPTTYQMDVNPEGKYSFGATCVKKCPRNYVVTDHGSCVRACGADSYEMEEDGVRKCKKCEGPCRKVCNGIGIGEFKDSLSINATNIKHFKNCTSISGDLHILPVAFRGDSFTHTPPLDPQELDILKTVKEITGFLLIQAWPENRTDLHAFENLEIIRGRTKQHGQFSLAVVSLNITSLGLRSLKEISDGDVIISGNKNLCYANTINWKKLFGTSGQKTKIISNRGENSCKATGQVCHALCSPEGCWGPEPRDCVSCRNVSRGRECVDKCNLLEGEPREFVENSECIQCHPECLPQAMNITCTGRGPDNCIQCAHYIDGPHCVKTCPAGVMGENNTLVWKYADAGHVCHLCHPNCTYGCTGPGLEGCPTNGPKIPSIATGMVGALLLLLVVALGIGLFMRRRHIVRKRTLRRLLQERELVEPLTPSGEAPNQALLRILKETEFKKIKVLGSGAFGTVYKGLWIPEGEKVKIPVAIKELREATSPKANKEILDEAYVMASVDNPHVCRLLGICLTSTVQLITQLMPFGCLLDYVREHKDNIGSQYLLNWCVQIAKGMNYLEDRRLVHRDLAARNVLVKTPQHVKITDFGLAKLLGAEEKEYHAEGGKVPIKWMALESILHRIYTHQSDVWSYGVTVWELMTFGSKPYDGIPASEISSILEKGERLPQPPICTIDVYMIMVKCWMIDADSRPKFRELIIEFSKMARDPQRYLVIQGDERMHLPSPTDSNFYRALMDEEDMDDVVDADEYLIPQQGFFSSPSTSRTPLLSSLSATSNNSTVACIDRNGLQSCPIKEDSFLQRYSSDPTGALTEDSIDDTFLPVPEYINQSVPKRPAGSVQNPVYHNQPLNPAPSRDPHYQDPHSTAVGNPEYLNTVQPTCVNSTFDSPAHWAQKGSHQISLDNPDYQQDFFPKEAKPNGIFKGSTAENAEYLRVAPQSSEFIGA
T1 sequence (P35968 whole entry): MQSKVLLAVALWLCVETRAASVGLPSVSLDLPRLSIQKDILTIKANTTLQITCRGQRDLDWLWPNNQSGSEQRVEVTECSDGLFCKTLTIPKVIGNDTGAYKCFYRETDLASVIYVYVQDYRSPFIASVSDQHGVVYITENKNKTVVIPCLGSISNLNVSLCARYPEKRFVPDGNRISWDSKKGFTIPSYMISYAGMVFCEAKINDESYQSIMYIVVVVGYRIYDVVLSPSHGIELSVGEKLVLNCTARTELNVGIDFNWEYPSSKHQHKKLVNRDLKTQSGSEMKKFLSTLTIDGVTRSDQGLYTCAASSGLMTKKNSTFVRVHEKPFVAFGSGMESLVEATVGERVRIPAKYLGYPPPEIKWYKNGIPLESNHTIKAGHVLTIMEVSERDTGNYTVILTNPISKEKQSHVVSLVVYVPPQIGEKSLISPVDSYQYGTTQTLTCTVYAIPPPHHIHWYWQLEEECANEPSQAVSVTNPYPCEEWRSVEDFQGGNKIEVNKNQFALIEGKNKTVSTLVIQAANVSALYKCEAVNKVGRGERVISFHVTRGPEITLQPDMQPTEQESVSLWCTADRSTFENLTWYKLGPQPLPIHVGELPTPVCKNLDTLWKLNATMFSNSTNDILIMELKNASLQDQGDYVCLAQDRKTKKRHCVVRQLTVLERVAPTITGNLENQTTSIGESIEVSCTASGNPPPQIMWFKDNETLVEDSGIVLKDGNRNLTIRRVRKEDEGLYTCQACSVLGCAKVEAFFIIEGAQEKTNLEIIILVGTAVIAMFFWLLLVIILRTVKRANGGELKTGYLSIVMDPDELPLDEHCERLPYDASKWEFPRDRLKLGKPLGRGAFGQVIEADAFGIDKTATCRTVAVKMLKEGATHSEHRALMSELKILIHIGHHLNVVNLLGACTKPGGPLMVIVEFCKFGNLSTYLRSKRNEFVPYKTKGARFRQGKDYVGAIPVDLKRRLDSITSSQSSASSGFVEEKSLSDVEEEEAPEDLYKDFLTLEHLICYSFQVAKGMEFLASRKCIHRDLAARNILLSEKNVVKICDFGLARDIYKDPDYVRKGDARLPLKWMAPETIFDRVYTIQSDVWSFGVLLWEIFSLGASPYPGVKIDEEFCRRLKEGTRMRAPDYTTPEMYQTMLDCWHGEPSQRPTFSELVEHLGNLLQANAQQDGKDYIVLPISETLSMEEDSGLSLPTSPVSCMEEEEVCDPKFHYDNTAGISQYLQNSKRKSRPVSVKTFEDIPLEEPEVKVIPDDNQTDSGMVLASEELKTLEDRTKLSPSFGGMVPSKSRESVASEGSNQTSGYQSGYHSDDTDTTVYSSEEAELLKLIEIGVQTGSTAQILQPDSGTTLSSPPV
Chain of Platelet-derived growth factor receptor alpha (Homo sapiens) (P16234 whole entry): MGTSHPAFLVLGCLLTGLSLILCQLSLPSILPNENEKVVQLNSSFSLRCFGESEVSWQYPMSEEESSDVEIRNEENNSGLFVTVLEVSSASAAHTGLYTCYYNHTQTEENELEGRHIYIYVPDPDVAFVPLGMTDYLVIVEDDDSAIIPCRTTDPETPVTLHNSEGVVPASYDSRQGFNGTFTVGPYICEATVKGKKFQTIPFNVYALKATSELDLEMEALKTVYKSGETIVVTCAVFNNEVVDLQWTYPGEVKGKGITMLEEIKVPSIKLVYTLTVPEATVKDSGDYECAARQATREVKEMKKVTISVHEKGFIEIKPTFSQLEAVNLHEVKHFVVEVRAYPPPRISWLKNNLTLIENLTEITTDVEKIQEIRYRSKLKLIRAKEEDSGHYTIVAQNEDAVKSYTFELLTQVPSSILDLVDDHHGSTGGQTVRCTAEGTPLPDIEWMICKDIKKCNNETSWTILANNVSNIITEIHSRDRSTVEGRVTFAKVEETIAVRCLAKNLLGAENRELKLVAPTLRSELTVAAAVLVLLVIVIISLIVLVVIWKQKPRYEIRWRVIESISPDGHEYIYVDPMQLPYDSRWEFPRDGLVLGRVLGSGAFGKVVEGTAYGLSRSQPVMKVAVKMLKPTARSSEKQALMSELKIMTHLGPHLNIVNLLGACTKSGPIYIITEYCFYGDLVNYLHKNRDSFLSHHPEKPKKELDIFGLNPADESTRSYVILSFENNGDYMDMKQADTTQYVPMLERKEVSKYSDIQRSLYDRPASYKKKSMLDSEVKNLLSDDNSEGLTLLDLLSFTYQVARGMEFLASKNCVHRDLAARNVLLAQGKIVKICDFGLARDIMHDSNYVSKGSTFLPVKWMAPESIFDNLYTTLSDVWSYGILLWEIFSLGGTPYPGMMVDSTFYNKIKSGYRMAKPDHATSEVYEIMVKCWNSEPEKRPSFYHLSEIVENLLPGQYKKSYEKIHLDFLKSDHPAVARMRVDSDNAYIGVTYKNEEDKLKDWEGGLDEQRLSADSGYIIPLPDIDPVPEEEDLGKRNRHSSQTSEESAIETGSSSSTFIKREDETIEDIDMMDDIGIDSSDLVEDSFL
Chain of Platelet-derived growth factor receptor beta (Homo sapiens) (P09619 whole entry): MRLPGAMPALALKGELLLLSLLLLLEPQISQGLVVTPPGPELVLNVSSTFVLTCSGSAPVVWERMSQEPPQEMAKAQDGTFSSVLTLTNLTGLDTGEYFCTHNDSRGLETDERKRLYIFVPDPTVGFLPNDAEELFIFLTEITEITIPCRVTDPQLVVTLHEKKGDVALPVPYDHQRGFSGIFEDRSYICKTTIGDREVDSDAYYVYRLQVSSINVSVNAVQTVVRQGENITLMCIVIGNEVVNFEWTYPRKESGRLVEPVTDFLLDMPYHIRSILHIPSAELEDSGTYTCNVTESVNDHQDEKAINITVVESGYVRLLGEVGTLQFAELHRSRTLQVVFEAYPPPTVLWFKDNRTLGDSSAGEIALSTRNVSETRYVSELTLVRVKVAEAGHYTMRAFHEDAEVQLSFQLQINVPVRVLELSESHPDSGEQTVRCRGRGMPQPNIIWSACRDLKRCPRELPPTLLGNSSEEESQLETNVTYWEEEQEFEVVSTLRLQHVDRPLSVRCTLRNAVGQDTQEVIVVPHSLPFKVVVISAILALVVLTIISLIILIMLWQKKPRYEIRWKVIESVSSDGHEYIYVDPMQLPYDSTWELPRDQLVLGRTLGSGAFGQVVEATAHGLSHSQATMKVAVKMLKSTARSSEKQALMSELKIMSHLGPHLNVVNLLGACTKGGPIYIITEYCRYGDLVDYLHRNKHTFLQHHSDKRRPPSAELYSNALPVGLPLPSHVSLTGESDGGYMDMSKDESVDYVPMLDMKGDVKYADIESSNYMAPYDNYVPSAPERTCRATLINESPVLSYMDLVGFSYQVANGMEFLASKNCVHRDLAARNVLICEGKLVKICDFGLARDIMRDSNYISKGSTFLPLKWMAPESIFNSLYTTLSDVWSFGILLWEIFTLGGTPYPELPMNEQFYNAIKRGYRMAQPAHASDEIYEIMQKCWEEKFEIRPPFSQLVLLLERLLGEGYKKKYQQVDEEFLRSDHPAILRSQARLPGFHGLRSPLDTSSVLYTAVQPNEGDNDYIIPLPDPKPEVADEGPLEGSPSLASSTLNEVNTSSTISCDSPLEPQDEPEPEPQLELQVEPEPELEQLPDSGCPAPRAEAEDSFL

inhibition [1]: 93.5%
IC50 (MDA-MB-231): 47.7 µM
IC50 [2]: 0.489 µM
IC50 (A549): 64.4 µM
IC50 (HepG2 [3]): 36.3 µM
inhibition [4]: 47.5%
Structure (SMILES): Cc1ccc(CC(=O)Nc2ccc3oc(-c4ccccc4Cl)nc3c2)cc1
IC50 (HUVEC [5]): 16.3 µM

inhibition [1]: 90.2%
IC50 (MDA-MB-231): > 100 µM
IC50 [2]: 0.338 µM
IC50 (A549): > 100 µM
IC50 (HepG2 [3]): 37 µM
inhibition [4]: 44.1%
Structure (SMILES): O=C(Nc1ccc2oc(-c3ccc(Cl)cc3)nc2c1)c1ccc(Cl)c(Br)c1
IC50 (HUVEC [5]): 13.4 µM

inhibition [1]: 87.5%
IC50 (MDA-MB-231): 69.4 µM
IC50 [2]: 0.988 µM
IC50 (A549): 36.6 µM
IC50 (HepG2 [3]): 26.3 µM
inhibition [4]: 45.2%
Structure (SMILES): O=C(Nc1ccc2[nH]c(-c3ccc(Cl)cc3)nc2c1)c1ccc(Cl)c(F)c1
IC50 (HUVEC [5]): 13.4 µM

inhibition [1]: 93.8%
IC50 (MDA-MB-231): 74.4 µM
IC50 [2]: 0.542 µM
IC50 (A549): 30.4 µM
IC50 (HepG2 [3]): 12 µM
inhibition [4]: 40.8%
Structure (SMILES): O=C(Nc1ccc2[nH]c(-c3ccc(Cl)cc3)nc2c1)c1ccc(Cl)c(Br)c1
IC50 (HUVEC [5]): 7.61 µM

Second part, the compound before the results:

Structure (SMILES): COc1ccc(CC(=O)Nc2ccc3oc(-c4ccccc4Cl)nc3c2)cc1
inhibition [1]: 90.1%
IC50 (MDA-MB-231): 76.2 µM
IC50 [2]: 0.444 µM
IC50 (A549): > 100 µM
IC50 (HepG2 [3]): 30.8 µM
inhibition [4]: 43.8%
IC50 (HUVEC [5]): 15.4 µM

Structure (SMILES): Cc1ccc(CC(=O)Nc2ccc3oc(-c4ccccc4F)nc3c2)cc1
inhibition [1]: 97.3%
IC50 (MDA-MB-231): 93.7 µM
IC50 [2]: 0.233 µM
IC50 (A549): 83.3 µM
IC50 (HepG2 [3]): 39.2 µM
inhibition [4]: 39.5%
IC50 (HUVEC [5]): 12.8 µM

Structure (SMILES): COc1ccc(CC(=O)Nc2ccc3oc(-c4ccccc4F)nc3c2)cc1
inhibition [1]: 94.6%
IC50 (MDA-MB-231): > 100 µM
IC50 [2]: 0.166 µM
IC50 (A549): > 100 µM
IC50 (HepG2 [3]): 37.3 µM
inhibition [4]: 42.8%
IC50 (HUVEC [5]): 14.2 µM

Structure (SMILES): COc1ccc(CC(=O)Nc2ccc3[nH]c(-c4ccc(Cl)cc4)nc3c2)cc1
Activity (HepG2 [6]): 7.3%
inhibition [7]: 2.7%
Activity (HepG2 [8]): 36.2%
Activity (HepG2 [9]): 55.7%
inhibition [10]: 26.1%
Activity (HepG2 [11]): 5.9%
Activity (HepG2 [12]): 6.7%
inhibition [13]: -3.6%
inhibition [1]: 103%
inhibition (Chorioallantoic membrane [14]): Dose-dependent effect
Activity (HUVEC [15]): 31.8%
Activity (HUVEC [16]): 59.3%
inhibition [17]: 18.5%
Activity (HUVEC [18]): 18.9%
inhibition (Chorioallantoic membrane [19]): 28%
IC50 (MDA-MB-231): 57.3 µM
Activity (HUVEC [20]): 34.3%
Activity (HUVEC [21]): 7.3%
cytotoxicity at 10 µM [22]: 56.4%
Activity (HUVEC [23]): 6.9%
inhibition [24]: -3.5%
Activity (HUVEC [25]): 2.5%
IC50 [2]: 0.0514 µM
IC50 (A549): 73.8 µM
IC50 (HepG2 [3]): 2.57 µM
Activity (HepG2 [26]): 28.1%
inhibition [4]: 58.3%
Activity (HepG2 [27]): Dose-dependent effect
Activity (HepG2 [28]): 25.3%
Activity (HepG2 [29]): 13.7%
Activity (HepG2 [30]): 68%
IC50 (HUVEC [5]): 1.47 µM
inhibition (Chorioallantoic membrane [31]): 79%
Activity (HUVEC [32]): 71.4%
Activity (HUVEC [33]): 21.3%
inhibition (Chorioallantoic membrane [34]): 51%
inhibition [35]: Active
Activity (HUVEC [36]): Dose-dependent effect
Activity (HUVEC [37]): 8.9%
Activity (HepG2 [38]): 8.1%
